± gives the standard deviation of the averaged measurements.
Tests used:
Assay in all cases: level (log10 ratio to DMSO vehicle control); higher = higher biomarker level / cell amount than vehicle control
Conditions in all cases: in DMSO
[1] = compound: FC(F)(F)C(F)(F)C(F)(F)C(F)(F)C(F)(F)C(F)(F)C(F)(F)I [1-Iodopentadecafluoroheptane]
Method: (§1)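 BioMAP Diversity Plus panel of 12 human primary cell co-culture systems (3C, 4H, LPS, SAg, BT, BF4T, BE3C, CASM3C, HDF3CGF, KF3CT, MyoF, Mphg). Compounds were added 1 h before stimulation and left for 24 h (MyoF 48 h; BT 72 h for soluble read-outs or 6 d for IgG). Biomarkers were read by ELISA, cytotoxicity by SRB, PBMC viability and proliferation by Alamar Blue. Each well value was divided by the mean of 8 DMSO control wells on the same plate and log10 transformed; duplicate blinded samples were tested at 4 concentrations.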

[2] = compound: O=S(=O)(O)CCC(F)(F)C(F)(F)C(F)(F)C(F)(F)C(F)(F)C(F)(F)F [6:2 Fluorotelomer sulfonic acid]
Method: as §1

Octafluoroadipamide = compound: NC(=O)C(F)(F)C(F)(F)C(F)(F)C(F)(F)C(N)=O [Octafluoroadipamide]
Method: as §1

[3] = compound: O=S(=O)(Cl)C(F)(F)C(F)(F)C(F)(F)C(F)(F)C(F)(F)C(F)(F)C(F)(F)C(F)(F)F [Perfluoro-1-octanesulfonyl chloride]
Method: as §1

Heptafluorobutyl iodide = compound: FC(F)(F)C(F)(F)C(F)(F)CI [Heptafluorobutyl iodide]
Method: as §1

[4] = compound: FC(F)(F)C(F)(F)C(F)(F)C(F)(F)C(F)(F)C(F)(F)CC1CO1 [3-(Perfluorohexyl)-1,2-epoxypropane]
Method: as §1

[5] = compound: O=S(=O)(F)C(F)(F)C(F)(F)C(F)(F)C(F)(F)C(F)(F)C(F)(F)C(F)(F)C(F)(F)F [Perfluorooctanesulfonyl fluoride]
Method: as §1

| Test System | level (log10) ([1]; 6700 nM) | level (log10) ([1]; 20000 nM) | level (log10) ([2]; 6700 nM) | level (log10) ([2]; 20000 nM) | level (log10) ([2]; 60000 nM) | level (log10) (Octafluoroadipamide; 6700 nM) | level (log10) (Octafluoroadipamide; 20000 nM) | level (log10) (Octafluoroadipamide; 60000 nM) | level (log10) ([3]; 6700 nM) | level (log10) ([3]; 20000 nM) | level (log10) ([3]; 60000 nM) | level (log10) (Heptafluorobutyl iodide; 6700 nM) | level (log10) (Heptafluorobutyl iodide; 20000 nM) | level (log10) (Heptafluorobutyl iodide; 60000 nM) | level (log10) ([4]; 6700 nM) | level (log10) ([4]; 20000 nM) | level (log10) ([4]; 60000 nM) | level (log10) ([5]; 6700 nM) | level (log10) ([5]; 20000 nM) | level (log10) ([5]; 60000 nM) |
| --- | --- | --- | --- | --- | --- | --- | --- | --- | --- | --- | --- | --- | --- | --- | --- | --- | --- | --- | --- | --- |
| MyoF:Collagen I | -0.0495 ± 0.0021 | -0.339 ± 0.012 | 0.011 ± 0.025 | -0.022 ± 0.016 | 0 ± 0.0085 | -0.0015 ± 0.015 | 0.009 ± 0.0071 | 0.0135 ± 0.0021 | -0.009 | -0.0185 ± 0.00071 | -0.0665 ± 0.00071 | -0.0015 ± 0.0035 | -0.0195 ± 0.005 | 0.013 ± 0.018 | -0.011 ± 0.018 | -0.003 ± 0.0028 | 0.007 ± 0.02 | 0.0005 ± 0.0035 | -0.005 ± 0.0099 | 0.003 ± 0.016 |
| CASM3C:CD141/Thrombomodulin | -0.0595 ± 0.021 | -0.0445 ± 0.021 | -0.015 ± 0.037 | -0.0175 ± 0.063 | -0.033 ± 0.021 | 0.0225 ± 0.0064 | 0.0095 ± 0.019 | 0.007 ± 0.02 | -0.019 ± 0.011 | 0.012 ± 0.017 | 0.03 ± 0.0071 | -0.025 ± 0.0099 | -0.039 ± 0.0085 | -0.0125 ± 0.013 | 0.011 ± 0.011 | 0.005 ± 0.013 | 0.0225 ± 0.029 | -0.004 ± 0.0042 | -0.01 ± 0.0014 | -0.0075 ± 0.005 |
| MyoF:TIMP-1 | 0.049 ± 0.0057 | -0.0605 ± 0.0092 | -0.032 ± 0.052 | 0.031 ± 0.042 | 0.097 ± 0.011 | -0.0325 ± 0.023 | 0.004 ± 0.033 | 0.021 ± 0.021 | -0.009 ± 0.044 | 0.0035 ± 0.043 | 0.148 ± 0.031 | -0.059 ± 0.088 | -0.068 ± 0.068 | -0.0755 ± 0.063 | -0.0295 ± 0.046 | -0.028 ± 0.027 | 0.033 ± 0.03 | 0.006 ± 0.0099 | 0.0035 ± 0.016 | 0.004 ± 0.0014 |
| BE3C:SRB | 0.0095 ± 0.00071 | 0.0085 ± 0.0035 | -0.005 ± 0.0099 | -0.001 ± 0.0028 | 0.0055 ± 0.011 | -0.0005 ± 0.0021 | -0.0055 ± 0.005 | 0.006 ± 0.011 | -0.001 ± 0.0014 | -0.049 ± 0.0057 | -0.659 ± 0.019 | 0.002 ± 0.0028 | -0.003 ± 0.0071 | 0.0035 ± 0.00071 | 0.008 ± 0.0057 | 0.0025 ± 0.0064 | 0.011 ± 0.018 | -0.003 ± 0.0014 | 0.0005 ± 0.005 | 0.0045 ± 0.021 |
| 4H:SRB | 0.0015 ± 0.0092 | 0.0125 ± 0.005 | -0.0015 ± 0.0021 | 0.0035 ± 0.018 | -0.004 ± 0.027 | -0.0065 ± 0.022 | -0.001 ± 0.025 | -0.003 ± 0.013 | -0.0105 ± 0.0078 | 0 ± 0.014 | -0.0495 ± 0.061 | -0.001 ± 0.0028 | 0.0045 ± 0.0064 | 0.011 ± 0.0099 | 0.007 ± 0.0028 | -0.003 ± 0.0057 | 0.015 ± 0.023 | 0.0015 ± 0.00071 | 0.001 ± 0.0028 | -0.0035 ± 0.0064 |
| lMphg:SRB | -0.01 ± 0.0014 | -0.0015 ± 0.0021 | -0.001 ± 0.011 | 0.0125 ± 0.019 | -0.002 ± 0.018 | -0.004 ± 0.0014 | 0 ± 0.0042 | 0.008 ± 0.017 | -0.004 ± 0.0014 | -0.004 ± 0.011 | -0.002 ± 0.0071 | -0.0035 ± 0.0035 | 0.0065 ± 0.0092 | 0.0045 ± 0.0064 | -0.012 ± 0.0042 | -0.016 ± 0.0071 | 0.0115 ± 0.005 | 0.005 ± 0.0099 | -0.0085 ± 0.0092 | -0.0015 ± 0.0092 |
| LPS:CCL2/MCP-1 | 0.0035 ± 0.00071 | 0.0225 ± 0.0021 | 0.0095 ± 0.0021 | 0.037 ± 0.018 | 0.056 ± 0.037 | 0.003 ± 0.0042 | 0.0005 ± 0.0035 | 0.018 ± 0.021 | -0.0075 ± 0.0078 | 0.025 ± 0.021 | 0.0205 ± 0.029 | 0.008 ± 0.041 | 0.0035 ± 0.013 | 0.027 ± 0.024 | -0.012 ± 0.011 | -0.0055 ± 0.019 | 0.0025 ± 0.0078 | 0.0005 ± 0.015 | -0.012 ± 0.016 | 0.0145 ± 0.028 |
| MyoF:CXCL8/IL-8 | 0.028 ± 0.018 | 0.034 ± 0.038 | 0.007 ± 0.031 | 0 ± 0.018 | 0.016 ± 0.021 | 0.007 ± 0.028 | -0.006 ± 0.011 | 0.0075 ± 0.016 | -0.005 ± 0.016 | 0.0115 ± 0.005 | 0.138 ± 0.0042 | -0.0205 ± 0.0035 | -0.0475 ± 0.0092 | -0.0395 ± 0.011 | -0.019 | -0.0205 ± 0.025 | -0.005 ± 0.031 | 0.0095 ± 0.0021 | 0.023 ± 0.0042 | 0.0325 ± 0.032 |

Reference: the supplement of paper PMC10331698
